Reference: article PMC6155683, “Pharmacokinetics Studies of 12 Alkaloids in Rat Plasma after Oral Administration of Zuojin and Fan-Zuojin Formulas” (Molecules : A Journal of Synthetic Chemistry and Natural …, 2017)
Like-named read-outs stand apart in the source and are kept apart here. Each block holds one molecule with its values, some of them ahead of it.

Key:
[1] = jejunum vs ileum and colon; cited from earlier work
P-gp = conditions: cited from earlier work
[2] = Stability of analytes in rat plasma under storage conditions; assay type: physicochemical; conditions: n = 6; for Stability RE, 3 freeze-thaw cycles / Stability RE, 30 days at −20 °C: rat plasma; for Stability RE, processed samples' stability: room temperature 24 h
Procedure: The stabilities of analytes in plasma were assessed by analyzing the QC samples at three concentration levels under the following storage conditions: after three freeze (−20 °C)-thaw (room temperature) cycles; stored at −20 °C for 30 days, and comparing the results with those of freshly prepared QC samples. Stabilities of the processed samples at room temperature for 24 h were also assessed.

[3] = PK study of the 12 alkaloids in rat plasma after oral administration of ZJ and FZJ extract (LC–MS/MS); assay type: in vivo
Procedure: The time schedule included 15 time-points and six rats were sampled at each time-point. All the rats were orally administered with ZJ extract (suspended in water) at a dose of 3.38 g/kg body weight (dosages of the 12 alkaloids were shown in Table S4), equivalent to crude drug dose of 12 g/kg body weight. Blood samples were collected from the suborbital vein of the rats at 10, 20, 30, 60, 90, 120, 180, 240, 300, 330, 360, 480, 720, 1440, 2160 min after administration, and centrifuged immediately at 5000 rpm for 10 min. The plasma samples were stored at −20 °C until analysis.
Similarly, the time schedule of other rats included 15 time-points and six rats were orally administered with FZJ extract at a dose of 3.76 g/kg body weight (also equivalent to crude drug dose of 12 g/kg body weight, Table S4). Blood samples were collected and treated as mentioned above in the PK study of ZJ extract.
PK parameters of the 12 alkaloids including AUC0→t, AUC0→∞, mean retention time (MRT0→t, MRT0→∞), and elimination half-life (t1/2) were calculated with non-compartmental method by DAS 2.0 software (Mathematical Pharmacology Professional Committee of China, Shanghai, China). Maximum plasma drug concentration (Cmax) and time to reach the maximum plasma drug concentration (Tmax) were observed directly from the detected C–T data. The results were expressed as arithmetic mean ± standard deviation (SD).

[4] = Two-compartment model fitting of C–T curves (DAS 2.0); assay type: in vivo, rat
From the text: Double peaks in C–T curves were observed repeatedly in the PK study of ZJ and related TCM prescriptions, but explanations to the phenomenon were still ambiguous. Generally, possible reasons for the double peak phenomenon could be summarized as follows: (a) enterohepatic circulation; […] (c) irregular pattern of gastric emptying. […] Moreover, Tmax of the alkaloids after administration of ZJ extract were deferred from that of FZJ administration. […] It probably play a major role in the double peak phenomenon, since the GI motility can affect the drug absorption.

[5] = Dose modified systemic exposure (AUC0→∞/D, Cmax/D)
Procedure: Because the alkaloids content in ZJ and FZJ were no longer linear with the proportion of CR and EF after extraction process, AUC0→∞/D (ratio of AUC0→∞ and dose) and Cmax/D (ratio of Cmax and dose) were calculated to estimate the dose modified systemic exposure levels of the 12 alkaloids (Table 3). […] Physicochemical properties of these alkaloids had been calculated in silico to predict their human colon adenocarcinoma cell (Caco-2) permeability according to the three-property based rule (3PRule). Polar surface area (PSA), logarithm of the n-octanol/water distribution coefficient (LogD), molecular weight (MW), hydrogen bond donors (HBD), hydrogen bond acceptors (HBA), number of free rotatable bonds (NRB) and molar solubility (S) of the alkaloids were retrieved from SciFinder® (American Chemical Society).

Stability RE, 3 freeze-thaw cycles ([2]; high QC concentration): −12.89%
Stability RE, 30 days at −20 °C ([2]; high QC concentration): −12.35%
Stability RE, 3 freeze-thaw cycles ([2]; low QC concentration): −14.23%
Stability RE, 30 days at −20 °C ([2]; low QC concentration): −17.74%
Stability RE, 3 freeze-thaw cycles ([2]; medium QC concentration): −7.2%
Stability RE, 30 days at −20 °C ([2]; medium QC concentration): −13.85%
Stability RE, processed samples' stability ([2]; high QC concentration): −12.47%
Stability RE, processed samples' stability ([2]; low QC concentration): −9.27%
Stability RE, processed samples' stability ([2]; medium QC concentration): −2.85%
AUC(0-inf) ([3]; rat, in vivo, po, 3.38 g/kg): 96.6 ± 33.2 ng·h/mL
AUC(0-t) ([3]; rat, in vivo, po, 3.38 g/kg): 88.3 ± 24.9 ng·h/mL
Cmax ([3]; rat, in vivo, po, 3.38 g/kg): 34.1 ± 19.2 ng/mL
MRT inf ([3]; rat, in vivo, po, 3.38 g/kg): 8.75 h
MRT last ([3]; rat, in vivo, po, 3.38 g/kg): 6.74 h
Tmax ([3]; rat, in vivo, po, 3.38 g/kg): 1.5 h
half-life ([3]; rat, in vivo, po, 3.38 g/kg): 5.65 ± 2.41 h
AUC(0-inf) ([3]; rat, in vivo, po, 3.76 g/kg): 18.9 ± 5.5 ng·h/mL
AUC(0-t) ([3]; rat, in vivo, po, 3.76 g/kg): 18.2 ± 4.98 ng·h/mL
Cmax ([3]; rat, in vivo, po, 3.76 g/kg): 9.74 ± 3.53 ng/mL
MRT inf ([3]; rat, in vivo, po, 3.76 g/kg): 4.49 h
MRT last ([3]; rat, in vivo, po, 3.76 g/kg): 3.86 h
Tmax ([3]; rat, in vivo, po, 3.76 g/kg): 3 h
half-life ([3]; rat, in vivo, po, 3.76 g/kg): 2.51 ± 1.73 h
Structure (SMILES): COc1cc2c(cc1OC)-c1cc3ccc(OC)c(OC)c3c[n+]1CC2 [palmatine]
absorption rate constant (Ka) compared between intestinal sites [1]: greater than that at ileum and colon
P-gp substrate (P-gp; not told): P-gp substrates

AIC (Akaike's information criterion method), two-compartment model fitting ([4]; oral FZJ extract): 66.844 ± 7.076
r^2 (correlation coefficient method), two-compartment model fitting ([4]; oral FZJ extract): 0.519 ± 0.407
AIC (Akaike's information criterion method), two-compartment model fitting ([4]; oral ZJ extract): 35.057 ± 11.851
r^2 (correlation coefficient method), two-compartment model fitting ([4]; oral ZJ extract): 0.544 ± 0.140
AUC0→∞/D (ratio of AUC0→∞ and dose) ([5]; oral FZJ extract): 278.39
Cmax/D (ratio of Cmax and dose) ([5]; oral FZJ extract): 59.61
AUC0→∞/D (ratio of AUC0→∞ and dose) ([5]; oral ZJ extract): 172.57
Cmax/D (ratio of Cmax and dose) ([5]; oral ZJ extract): 46.62
Stability RE, 3 freeze-thaw cycles ([2]; high QC concentration): 0.37%
Stability RE, 30 days at −20 °C ([2]; high QC concentration): −1.38%
Stability RE, 3 freeze-thaw cycles ([2]; low QC concentration): 18.91%
Stability RE, 30 days at −20 °C ([2]; low QC concentration): 14.46%
Stability RE, 3 freeze-thaw cycles ([2]; medium QC concentration): −14.69%
Stability RE, 30 days at −20 °C ([2]; medium QC concentration): −10.79%
Stability RE, processed samples' stability ([2]; high QC concentration): −10.58%
Stability RE, processed samples' stability ([2]; low QC concentration): 15.1%
Stability RE, processed samples' stability ([2]; medium QC concentration): −14.07%
AUC(0-t) ([3]; 3.38 g/kg, rat plasma, oral ZJ extract, mean ± SD, n = 6, read-out: AUC0→t): 11.5 ± 1.4 ng·h/mL
AUC(0-inf) ([3]; 3.38 g/kg, rat plasma, oral ZJ extract, mean ± SD, n = 6, read-out: AUC0→∞): 12.8 ± 1.43 ng·h/mL
Cmax ([3]; 3.38 g/kg, rat plasma, oral ZJ extract, mean ± SD, n = 6, read-out: Cmax): 3.45 ± 1.73 ng/mL
MRT last ([3]; 3.38 g/kg, rat plasma, oral ZJ extract, mean ± SD, n = 6, read-out: MRT0→t (converted)): 3.86 h
MRT inf ([3]; 3.38 g/kg, rat plasma, oral ZJ extract, mean ± SD, n = 6, read-out: MRT0→∞ (converted)): 5.22 h
half-life ([3]; 3.38 g/kg, rat plasma, oral ZJ extract, mean ± SD, n = 6, read-out: t1/2): 3.64 ± 1.5 h
Tmax ([3]; 3.38 g/kg, rat plasma, oral ZJ extract, read-out: Tmax (converted)): 1.5 h
AUC(0-t) ([3]; 3.76 g/kg, rat plasma, oral FZJ extract, mean ± SD, n = 6, read-out: AUC0→t): 48.2 ± 8.86 ng·h/mL
AUC(0-inf) ([3]; 3.76 g/kg, rat plasma, oral FZJ extract, mean ± SD, n = 6, read-out: AUC0→∞): 50.1 ± 8.81 ng·h/mL
Cmax ([3]; 3.76 g/kg, rat plasma, oral FZJ extract, mean ± SD, n = 6, read-out: Cmax): 10.7 ± 4.43 ng/mL
MRT last ([3]; 3.76 g/kg, rat plasma, oral FZJ extract, mean ± SD, n = 6, read-out: MRT0→t (converted)): 5.77 h
MRT inf ([3]; 3.76 g/kg, rat plasma, oral FZJ extract, mean ± SD, n = 6, read-out: MRT0→∞ (converted)): 6.89 h
half-life ([3]; 3.76 g/kg, rat plasma, oral FZJ extract, mean ± SD, n = 6, read-out: t1/2): 4.92 ± 1.83 h
Tmax ([3]; 3.76 g/kg, rat plasma, oral FZJ extract, read-out: Tmax (converted)): 0.5 h
Tsec (time of the secondary peak in C–T curve) ([3]; rat plasma, oral ZJ extract): 20 min
Csec (drug concentration of the secondary peak in C–T curve) ([3]; rat plasma, oral ZJ extract, mean ± SD, n = 6): 2.55 ± 0.38 ng/mL
Structure (SMILES): Cn1c(=O)n(CCC2(O)C(=O)Nc3ccccc32)c(=O)c2ccccc21 (stereo not shown) [wuchuyuamide-I]

Structure (SMILES): c1c2c(cc3c1OCO3)-c1cc3ccc4c(c3c[n+]1CC2)OCO4 [coptisine]
absorption rate constant (Ka) compared between intestinal sites [1]: better absorption rate at colon compared with jejunum
P-gp substrate (P-gp): P-gp substrates
Stability RE, 3 freeze-thaw cycles ([2]; high QC concentration): 0.97%
Stability RE, 30 days at −20 °C ([2]; high QC concentration): 0.65%
Stability RE, 3 freeze-thaw cycles ([2]; low QC concentration): 6.92%
Stability RE, 30 days at −20 °C ([2]; low QC concentration): −11.58%
Stability RE, 3 freeze-thaw cycles ([2]; medium QC concentration): 5.77%
Stability RE, 30 days at −20 °C ([2]; medium QC concentration): −8.99%
Stability RE, processed samples' stability ([2]; high QC concentration): −8.19%
Stability RE, processed samples' stability ([2]; low QC concentration): −10.47%
Stability RE, processed samples' stability ([2]; medium QC concentration): −2.14%
Tsec (time of the secondary peak in C–T curve) ([3]; rat plasma, oral ZJ extract): 90 min
Csec (drug concentration of the secondary peak in C–T curve) ([3]; rat, in vivo, po): 4.96 ± 2.29 ng/mL
AUC(0-inf) ([3]; rat, in vivo, po, 3.38 g/kg): 71.6 ± 10.7 ng·h/mL
AUC(0-t) ([3]; rat, in vivo, po, 3.38 g/kg): 68.7 ± 10.8 ng·h/mL
Cmax ([3]; rat, in vivo, po, 3.38 g/kg): 14.1 ± 7.75 ng/mL
MRT inf ([3]; rat, in vivo, po, 3.38 g/kg): 12.3 h
MRT last ([3]; rat, in vivo, po, 3.38 g/kg): 10.7 h
Tmax ([3]; rat, in vivo, po, 3.38 g/kg): 5 h
half-life ([3]; rat, in vivo, po, 3.38 g/kg): 8.01 ± 1.92 h
AUC(0-inf) ([3]; rat, in vivo, po, 3.76 g/kg): 11.8 ± 1.25 ng·h/mL
AUC(0-t) ([3]; rat, in vivo, po, 3.76 g/kg): 11 ± 1.64 ng·h/mL
Cmax ([3]; rat, in vivo, po, 3.76 g/kg): 4.78 ± 2.31 ng/mL
MRT inf ([3]; rat, in vivo, po, 3.76 g/kg): 5.2 h
MRT last ([3]; rat, in vivo, po, 3.76 g/kg): 4.18 h
Tmax ([3]; rat, in vivo, po, 3.76 g/kg): 3 h
half-life ([3]; rat, in vivo, po, 3.76 g/kg): 2.93 ± 1.22 h
